Reference: patent publication US8197860B2, “Method for enhancing nutrient absorption with astragalosides” (Nuliv Holding Inc., priority 2005, dated 2012)

Columns and labels:
Format in all cases: cell-based, human
[1] = tested on: Caco2 cells; test: Glucose uptake assay; parameters: key to * (regulatory effect on glucose uptake): ↑: the arrows that point up represent the enhancing effect on the glucose uptake; conditions: for Regulatory effects on the glucose uptake of the Caco2 cells: Table 2 summary; for Uptake rate (glucose): 48 hours, 25 mM glucose
Protocol: (§1) To evaluate the effect of the isolated astragaloside compound on the uptake of nutrient substances across the intestinal lumen, Caco-2 cells were grown on permeable filter as an experimental model. Caco2 cells originate from human colonic adenocarcinoma and spontaneously differentiate into an enterocyte-like phenotype after two weeks. The Caco-2 cell line, derived from a human colorectal carcinoma, has been used as an in vitro model system for studying drug absorption in gastrointestinal tract. These cells form monolayers with well-developed tight-junctions, and have been evaluated in details as an in vitro model to study both transcellular transport of nutrients and drugs in intestinal lumen.
(§2) Caco-2 cells were obtained from the ATCC (American Type Culture Collection). The cells were maintained in Dulbecco's modified Eagle medium (DMEM) containing 4.5 g/L glucose and 25 mM Hepes, supplemented with 10% fetal calf serum, 100 U/mL penicillin G and […]. The medium was changed every second day. The cells were routinely checked for Mycoplasma in monthly intervals. Caco-2 cells were cultured on semi-permeable membranes to differentiate into a highly functionalized epithelial barrier with remarkable morphological and biochemical similarity to the small intestinal columnar epithelium. The Caco-2 cell monolayers could therefore be used to study the membrane transport properties of many compounds. To trypsinize the cells, the culture dish was washed once with phosphate-buffered saline (PBS) followed by adding trypsine-EDTA for 10 minutes. The trypsinized cells were separated and filtered into single cells using a 35-μm strainer cap (Falcon 2235) before being seeded for further experiments.
(§3) Caco-2 cells (5×10^4) were seeded in a 48-well plate and maintained in culture medium (DMEM with 10% FBS, 1% nonessential amino acids, L-glutamine, penicillin G (100 U/mL), streptomycin (10 μg/mL), and amphotericin B (2.5 μg/mL) in a 37° C. incubator for 10 days for the cells to differentiate. The culture medium was changed once every two days. The cells were then washed with PBS before replenishing with the culture medium containing 5% FBS and various astragalosides at the indicated concentrations (0.01, 0.1 and 1 μM) for 48 hours. The Caco2 cells were washed out of remaining glucose with PBS and replaced in the glucose buffer (80 mM NaCl, 100 mM mannitol, 20 mM Tris-HCl, pH 7.4, 3 mM K2HPO4, 1 mM CaCl2, 1 mg/mL BSA) for 1 hour. Glucose uptake was initiated by replacing the glucose buffer with 0.2 ml of glucose buffer containing 2 μCi/mL of ^14C-glucose and unlabeled cold glucose to give a final glucose concentration of 25 mM. Glucose uptake was stopped by removing the glucose buffer and washing with PBS at designated time intervals. The cells were lysed in 0.2 mL of 0.2 N NaOH, and 20 μL of the cell lysate were transferred to the filter-bottomed UniFilter plates (Perkin-Elmer, Wellesley, Mass., USA) and dried in a vacuum oven at 37° C. The bottom of the UniFilter plate was sealed and 25 μL of the counting solution were added into each well. Adhesive plate sealers were used in place of the lids and radioactivity of each sample was counted using the microplate liquid scintillation counter (TopCount, Packard NXT, Packard BioScience Company, Meriden, Conn., USA). The amount of glucose accumulated in the cells was calculated and normalized to protein concentration, and uptake rate was expressed as nanomoles of glucose per minutes per milligram of cell protein (nmol/min/mg). Protein concentration was determined by a standard Bicinchoninic acid (BCA) protein assay. Nonspecific glucose uptake was measured by adding 2 μCi of L-[^14C]-glucose and subtracting from each determination to obtain specific glucose uptake.

[2] = tested on: Caco-2 cell monolayer; test: Arginine absorption assay (transport across Caco-2 cell monolayer); parameters: key to * (regulatory effect on arginine transport): ↑: the arrows that point up represent the enhancing effect on the arginine transport; conditions: for Regulatory effects on the arginine transport across the Caco2 cell monolayer: Table 3 summary; for Transport rate (arginine): 10 mM L-arginine apical; for Arginine transport rate: concentration from 0.01 μM to 1 μM
Protocol: as §1, §2
(§4) In measuring transport of arginine across the Caco-2 cell monolayer, both sides of the transwells were washed with arginine incubation buffer consisting of: 137 mM NaCl, 10 mM Hepes, 0.3 mM NaH2PO4, 0.3 mM K2HPO4, 5.4 mM KCl, 2.8 mM CaCl2, 1 mM MgSO4, 10 mM glucose, adjusted to pH 7.4. Then, the cell layer was preincubated in the incubation buffer at 37° C. for 1 h. The volume of incubation buffer was 0.2 mL and 0.9 mL in the apical and basolateral chambers, respectively. The cells were replaced with fresh incubation medium in both chambers prior to the transport experiment. The transport experiment was initiated by replacing the incubation solution on the apical side with solution containing 10 mM of L-arginine in which 0.125 μCi/mL of L-[^3H]-arginine was included. At designated time intervals, 10 μL-solution samples were removed from the basolateral side and radioactivity of each sample was counted using a microplate liquid scintillation counter (TopCount, Packard NXT). During the experiment, when a 10 μL-solution sample was removed from the basolateral side every time, 10 μL buffer was supplemented to keep the volume constant. The uptake of [^3H]-mannitol was used to correct for nonspecific transport of molecules across the monolayer membrane. Results were expressed as the nanomoles of arginine transport across the Caco-2 cell monolayers with respect to time in minutes (nmol/min).

[3] = tested on: Caco-2 cell monolayer; test: Tryptophan absorption assay (transport across Caco-2 cell monolayer); parameters: key to * (regulatory effect on tryptophan transport): ↑: the arrows that point up represent the enhancing effect on the tryptophan transport; conditions: for Regulatory effects on the tryptophan transport across the Caco2 cell monolayer: Table 4 summary; for Tryptophan transport rate: concentration from 0.01 μM to 1 mM
Protocol: as §1, §2, §4
The experimental procedures similar to those in Example 2 were used for measuring the uptake of tryptophan molecules across the Caco-2 membrane, except using a tryptophan incubation buffer consisting of 137 mM choline chloride, 10 mM Hepes, 0.6 mM KH2PO4, 5.4 mM KCl, 2.8 mM CaCl2, 1 mM MgSO4, and 10 mM glucose, and having its pH adjusted to 7.4. Results were expressed as the nanomoles of tryptophan transport across the Caco-2 cell monolayers with respect to time in minutes (nmol/min).

[4] = tested on: Caco2 cells; test: Folate uptake assay; parameters: key to * (regulatory effect on folate uptake): ↑: the arrows that point up represent the enhancing effect on folate uptake; conditions: compound 0.1 μM; for Uptake rate (folate): 2 days, 5 μM folate, pH 6.0
Protocol: as §1, §2, §3
The Caco2 cells were subjected to folate uptake test in a manner similar to that described in the glucose uptake assay in Example 1 above. […]

Row | Compound | Regulatory effects on the glucose uptake of the Caco2 cells [1] | * (regulatory effect on glucose uptake) ([1]; compound 0.01 μM) | Percentage (glucose uptake, control = 100) ([1]; compound 0.01 μM) [%] | Uptake rate (glucose) ([1]; compound 0.01 μM) [nmol/mg/min] | * (regulatory effect on glucose uptake) ([1]; compound 0.1 μM) | Percentage (glucose uptake, control = 100) ([1]; compound 0.1 μM) [%] | Uptake rate (glucose) ([1]; compound 0.1 μM) [nmol/mg/min] | * (regulatory effect on glucose uptake) ([1]; compound 1 μM) | Percentage (glucose uptake, control = 100) ([1]; compound 1 μM) [%] | Uptake rate (glucose) ([1]; compound 1 μM) [nmol/mg/min] | Regulatory effects on the arginine transport across the Caco2 cell monolayer [2] | * (regulatory effect on arginine transport) ([2]; compound 0.01 μM) | Percentage (arginine transport, control = 100) ([2]; compound 0.01 μM) [%] | Transport rate (arginine) ([2]; compound 0.01 μM) [nmol/min] | * (regulatory effect on arginine transport) ([2]; compound 0.1 μM) | Percentage (arginine transport, control = 100) ([2]; compound 0.1 μM) [%] | Transport rate (arginine) ([2]; compound 0.1 μM) [nmol/min] | * (regulatory effect on arginine transport) ([2]; compound 1 μM) | Percentage (arginine transport, control = 100) ([2]; compound 1 μM) [%] | Transport rate (arginine) ([2]; compound 1 μM) [nmol/min] | further results
1 | CC(C)(O)[C@@H]1CC[C@](C)([C@H]2[C@@H](O)C[C@@]3(C)[C@@H]4C[C@H](O[C@@H]5O[C@H](CO)[C@@H](O)[C@H](O)[C@H]5O)[C@H]5C(C)(C)[C@@H](O[C@@H]6OC[C@@H](O)[C@H](O)[C@H]6O)CC[C@@]56C[C@@]46CC[C@]23C)O1 [AS4, astragaloside IV] | had regulatory effects on the glucose uptake | ↑ | 183.15 | 11.670 ± 2.5800 | ↑ | 164.16 | 10.460 ± 2.6690 | ↑ | 141.27 | 9.0020 ± 1.8300 | had regulatory effects on the arginine transport | ↑ | 156.52 | 16.7245 ± 0.2890 | ↑ | 172.73 | 18.4575 ± 0.5955 | ↑ | 161.19 | 17.2241 ± 0.3759 | Glucose uptake rate versus control group ([1]; FIG. 1, selected concentrations): much higher glucose uptake rate than the control group; Arginine transport rate [2]: increased; Regulatory effects on the tryptophan transport across the Caco2 cell monolayer [3]: had regulatory effects on the tryptophan transport; * (regulatory effect on tryptophan transport) ([3]; compound 0.01 μM): ↑; Percentage (tryptophan transport, control = 100) ([3]; compound 0.01 μM): 113.29%; Transport rate (tryptophan) ([3]; compound 0.01 μM): 10.130 ± 0.7025 nmol/min; * (regulatory effect on tryptophan transport) ([3]; compound 0.1 μM): ↑; Percentage (tryptophan transport, control = 100) ([3]; compound 0.1 μM): 142.36%; Transport rate (tryptophan) ([3]; compound 0.1 μM): 12.730 ± 0.4470 nmol/min; * (regulatory effect on tryptophan transport) ([3]; compound 1 μM): ↑; Percentage (tryptophan transport, control = 100) ([3]; compound 1 μM): 108.07%; Transport rate (tryptophan) ([3]; compound 1 μM): 9.6640 ± 0.2770 nmol/min; Tryptophan transport rate [3]: increased; * (regulatory effect on folate uptake) [4]: ↑; Percentage (folate uptake vs own control) [4]: 135.12%; Uptake rate (folate) [4]: 75.710 ± 5.2390 pmol/mg/min
2 | CC(C)(O)[C@@H]1CC[C@](C)([C@H]2[C@@H](O)C[C@@]3(C)[C@@H]4C[C@H](O[C@@H]5O[C@H](CO)[C@@H](O)[C@H](O)[C@H]5O)[C@H]5C(C)(C)[C@@H](O[C@@H]6OC[C@@H](O)[C@H](O)[C@H]6O[C@@H]6O[C@H](CO)[C@@H](O)[C@H](O)[C@H]6O)CC[C@@]56C[C@@]46CC[C@]23C)O1 [AS6, astragaloside VI] | had regulatory effects on the glucose uptake | ↑ | 119.84 | 7.6360 ± 1.7330 | ↑ | 109.97 | 7.0070 ± 1.9470 | ↑ | 122.49 | 7.8050 ± 1.1830 | had regulatory effects on the arginine transport | ↑ | 130.35 | 13.9283 ± 1.7330 | ↑ | 140.36 | 14.9986 ± 1.3200 | ↑ | 127.22 | 13.5942 ± 1.2760 | Arginine transport rate [2]: increased; Regulatory effects on the tryptophan transport across the Caco2 cell monolayer [3]: had regulatory effects on the tryptophan transport; * (regulatory effect on tryptophan transport) ([3]; compound 0.01 μM): ↑; Percentage (tryptophan transport, control = 100) ([3]; compound 0.01 μM): 173.45%; Transport rate (tryptophan) ([3]; compound 0.01 μM): 15.510 ± 0.3688 nmol/min; * (regulatory effect on tryptophan transport) ([3]; compound 0.1 μM): ↑; Percentage (tryptophan transport, control = 100) ([3]; compound 0.1 μM): 151.87%; Transport rate (tryptophan) ([3]; compound 0.1 μM): 13.850 ± 0.6567 nmol/min; * (regulatory effect on tryptophan transport) ([3]; compound 1 μM): ↑; Percentage (tryptophan transport, control = 100) ([3]; compound 1 μM): 173.23%; Transport rate (tryptophan) ([3]; compound 1 μM): 15.490 ± 0.2161 nmol/min; Tryptophan transport rate [3]: increased; * (regulatory effect on folate uptake) [4]: ↑; Percentage (folate uptake vs own control) [4]: 140.37%; Uptake rate (folate) [4]: 84.560 ± 4.7200 pmol/mg/min
